Results on 21 compounds are retold here after ChEMBL document CHEMBL1135123, “Discovery of L-791,943: a potent, selective, non emetic and orally active phosphodiesterase-4 inhibitor” (Bioorg Med Chem Lett, 2002).

For data set [1], the target named is T1, 3',5'-cyclic-AMP phosphodiesterase 4A (Homo sapiens, UniProt P27815). Nature of the data set: Inhibitory concentration of compound against LPS- induced TNF-alpha production in whole human blood assay. The class given is functional, tissue-based.
Target sequence in this assay (P27815 whole entry): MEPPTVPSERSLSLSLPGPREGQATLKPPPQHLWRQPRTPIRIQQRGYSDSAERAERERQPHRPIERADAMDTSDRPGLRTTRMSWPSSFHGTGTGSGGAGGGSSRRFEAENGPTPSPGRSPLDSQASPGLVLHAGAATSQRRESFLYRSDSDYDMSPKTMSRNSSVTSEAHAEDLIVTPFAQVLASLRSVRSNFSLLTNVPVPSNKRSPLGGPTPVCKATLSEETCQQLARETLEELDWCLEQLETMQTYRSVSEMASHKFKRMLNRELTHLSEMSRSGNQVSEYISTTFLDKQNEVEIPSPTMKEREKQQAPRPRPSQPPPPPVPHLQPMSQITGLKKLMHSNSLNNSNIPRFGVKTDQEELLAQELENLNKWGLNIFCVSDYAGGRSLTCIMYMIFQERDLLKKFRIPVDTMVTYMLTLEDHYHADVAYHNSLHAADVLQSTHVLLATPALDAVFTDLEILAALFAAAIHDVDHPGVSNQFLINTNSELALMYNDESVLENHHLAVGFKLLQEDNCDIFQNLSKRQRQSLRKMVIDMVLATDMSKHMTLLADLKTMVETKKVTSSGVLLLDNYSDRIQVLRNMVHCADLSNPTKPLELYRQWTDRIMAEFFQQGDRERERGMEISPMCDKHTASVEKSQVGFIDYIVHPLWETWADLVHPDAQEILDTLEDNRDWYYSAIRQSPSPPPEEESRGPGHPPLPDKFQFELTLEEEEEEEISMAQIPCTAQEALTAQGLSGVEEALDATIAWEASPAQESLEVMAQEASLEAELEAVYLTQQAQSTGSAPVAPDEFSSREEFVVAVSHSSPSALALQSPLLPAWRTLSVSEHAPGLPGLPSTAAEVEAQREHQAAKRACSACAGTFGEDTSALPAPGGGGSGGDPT
The nature of data set [2]: Bioavailability. To be noted: eutheria, in vivo. In kind it is ADME, organism-based.
The nature of data set [3]: Half-life period was determined. In kind it is ADME.
The target of data set [4] is T1, 3',5'-cyclic-AMP phosphodiesterase 4A. Put plainly: Inhibitory concentration against human PDE4A isoform using a construct representing the common region of spliced variants expressed as GST-fusion protein in Sf9 cells.
Target sequence in this assay (P27815 whole entry, looked up, stated change not applied): as the sequence (P27815 whole entry) above
A further data set concerns Cavia porcellus. Nature of the data set: Ovalbumin induced bronchoconstriction in conscious guinea pig pretreated with 1 mg/kg intraperitoneal dose for 4 hr. In kind it is functional.
The test system of data set [5] is Ovis aries. Nature of the data set: Ascaris-induced late phase bronchoconstriction in conscious sheep administered intravenously at 2 mg/kg. In kind it is functional. To be noted: route intravenous.
Data set [6] relates to Ovis aries. Nature of the data set: Ascaris-induced early phase bronchoconstriction in conscious sheep administered intravenously at 2 mg/kg. The settings on record: route intravenous. The class given is functional.
The species entered for a further data set is Mustela putorius furo. Put plainly: Emetic effect in ferrets. The class given is functional.
The nature of data set [7]: Half life of compound was determined in rat. The class given is ADME, organism-based. The settings on record: in vivo.
Data set [8] can be described thus: Ascaris-induced bronchoconstriction in anesthetized squirrel monkey pretreated with 3 mg/kg peroral dose for 4 hr. The class given is functional. To be noted: route oral.
A short description of data set [9]: Half life of compound was determined in squirrel monkey. The class given is ADME. To be noted: in vivo.
A short description of data set [10]: Ascaris-induced bronchoconstriction in anesthetized squirrel monkey pretreated with 5 mg/kg intravenously for 30 min. The class given is functional. The settings on record: route intravenous.

Broadly, the IC50 is the point on the concentration scale where inhibition reaches its midpoint. The term bioavailability denotes the share of a dose that reaches the circulation, judged against a reference dose that is usually intravenous. In general, half-life refers to how long it takes for the measured level to halve.

As for `[O-][n+]1ccc(CC(c2ccc(C3(O)CCC3)cc2)c2ccc(OC(F)F)c(OC(F)F)c2)cc1` (stereo not given), the concentration for half-maximal inhibition (IC50) in data set [1] was 380 nM; in data set [4], 7.5 nM. The bioavailability in data set [2] amounted to 100%. Moreover, in [3], the half-life is 2 h.
`Clc1ccc(C(Cc2ccncc2)c2ccc3c(c2)OCCO3)cc1` (stereo not given) showed a concentration for half-maximal inhibition (IC50) in [4] of 772 nM.
Turning to `COc1ccc(C(Cc2ccncc2)c2ccc(Cl)cc2)c(F)c1OC1CCCC1` (stereo not given), the IC50 in [1] was found to be 98000 nM; in data set [4], 110 nM.
The corresponding values for `CCNC(=O)OCc1ccc(C(Cc2cc[n+]([O-])cc2)c2ccc(OC(F)F)c(OC(F)F)c2)cc1` (stereo not given) are 410 nM and 4.6 nM.
The corresponding values for `[O-][n+]1ccc(CC(c2ccc(CO)cc2)c2ccc(OC(F)F)c(OC(F)F)c2)cc1` (stereo not given) are 470 nM and 44 nM.
The corresponding values for `FC(F)Oc1ccc(C(Cc2ccncc2)c2ccc(Cl)cc2)cc1OC(F)F` (stereo not given) are 4500 nM and 11 nM.
For the compound `[O-][n+]1ccc(CC(c2ccc(C(O)(C(F)(F)F)C(F)(F)F)cc2)c2ccc(OC(F)F)c(OC(F)F)c2)cc1` (stereo not given), the Efficacy with Cavia porcellus was 58%; with Ovis aries [5] it was 95%; in the data set on Ovis aries [6] it was 85%; in data set [8], 96%. In the data set listed under Mustela putorius furo, this compound returned a Dose greater than 3 mg/kg. The half-life in [7] is greater than 24 h; in data set [9], 48 h. The concentration for half-maximal inhibition (IC50) in [1] is 670 nM; in [4] it was 4.2 nM.
For `CC(O)c1ccc(C(Cc2cc[n+]([O-])cc2)c2ccc(OC(F)F)c(OC(F)F)c2)cc1` (stereo not given), the results for the 50% inhibitory concentration (IC50) in data set [1] and in [4] were 510 nM and 45 nM, respectively.
On to `Cc1ccccc1C(=O)NS(=O)(=O)c1ccc(C(Cc2cc[n+]([O-])cc2)c2ccc(OC(F)F)c(OC(F)F)c2)cc1` (stereo not given), for which the IC50 stood at 75000 nM in data set [1] and 3.1 nM in [4].
The corresponding values for `COc1ccc(C(Cc2ccncc2)c2ccc(Cl)cc2)cc1OC1CCCC1` (stereo not given) are 12000 nM and 2.8 nM.
Turning to `CC(C)(O)c1ccc(C(Cc2cc[n+]([O-])cc2)c2ccc(OC(F)F)c(OC(F)F)c2)cc1` (stereo not given), the half-inhibitory concentration (IC50) amounted to 360 nM in data set [1] and 9.6 nM in data set [4]. In data set [2], this compound returned a bioavailability of 55%. The compound also had a half-life in [3] of 1 h.
Take `O=C(O)c1ccc(C(Cc2cc[n+]([O-])cc2)c2ccc(OC(F)F)c(OC(F)F)c2)cc1` (stereo not given): the IC50 stood at 77000 nM in data set [1] and 24 nM in [4].
In turn, `Clc1ccc(C(Cc2ccncc2)c2ccc3c(c2)OCO3)cc1` (stereo not given) gave an IC50 in [4] greater than 1000 nM.
As to `FC(F)Oc1ccc(C(Cc2ccncc2)c2ccc(Cl)cc2)cc1OC1CCCC1` (stereo not given), the concentration for half-maximal inhibition (IC50) in data set [1] came out at 8700 nM; in data set [4], 13 nM.
In the case of `CN(C)C(=O)c1ccc(C(Cc2cc[n+]([O-])cc2)c2ccc(OC(F)F)c(OC(F)F)c2)cc1` (stereo not given), the IC50 in [1] was 1000 nM; in data set [4], 8.6 nM.
The matching figures for `[O-][n+]1ccc(CC(c2ccc(C3(O)CC3)cc2)c2ccc(OC(F)F)c(OC(F)F)c2)cc1` (stereo not given): 1700 nM and 16 nM.
The corresponding values for `CC(C)(C(=O)O)c1cccc(-c2ccc(C(Cc3cc[n+]([O-])cc3)c3ccc(OC(F)F)c(OC(F)F)c3)cc2)c1` (stereo not given) are 6500 nM and 2.2 nM.
The matching figures for `Cc1ccc(C(=O)c2ccc(C(Cc3cc[n+]([O-])cc3)c3ccc(OC(F)F)c(OC(F)F)c3)cc2)nc1` (stereo not given): 890 nM and 7.3 nM.
As for `[O-][n+]1ccc(CC(c2ccc(COc3ccc(F)cc3)cc2)c2ccc(OC(F)F)c(OC(F)F)c2)cc1` (stereo not given), the IC50 in data set [1] was 1900 nM; in [4] it was 0.5 nM.
As to `O=C(O)Cc1ccc(C(Cc2cc[n+]([O-])cc2)c2ccc(OC(F)F)c(OC(F)F)c2)cc1` (stereo not given), the IC50 came to 58000 nM in data set [1] and 53 nM in [4].
Take `COc1ccc([C@H](Cc2ccncc2)c2ccccc2)cc1OC1CCCC1` [CDP840]: in the data set filed under Mustela putorius furo, the Dose was 30 mg/kg. Further, the half-life in data set [7] is less than 0.5 h; in [9], less than 1 h. The half-inhibitory concentration (IC50) was 16000 nM in [1] and 4.3 nM in data set [4]. The Efficacy in data set [10] is 64%.
